Calls of active or inactive are those of the source. The rule behind the calls is not given here.
Assays:
[1] = test system: Leishmania major; assay: Effect on Cholesta-7,24-dienol level in Leishmania major LV39 promastigotes assessed as fold change at 17 uM incubated for 48 hrs by LC-MS/MS analysis; assay type: functional
[2] = test system: Leishmania major; assay: Effect on 5-Dehydroepisterol level in Leishmania major LV39 promastigotes assessed as fold change at 17 uM incubated for 48 hrs by LC-MS/MS analysis; assay type: functional
[3] = test system: Leishmania major; assay: Effect on Fecosterol level in Leishmania major LV39 promastigotes assessed as fold change at 17 uM incubated for 48 hrs by LC-MS/MS analysis; assay type: functional
[4] = test system: Leishmania major; assay: Effect on Cholesterol level in Leishmania major LV39 promastigotes assessed as fold change at 17 uM incubated for 48 hrs by LC-MS/MS analysis; assay type: functional
[5] = test system: Leishmania major; assay: Effect on 4,14-Dimethylzymosterol level in Leishmania major LV39 promastigotes assessed as fold change at 17 uM incubated for 48 hrs by LC-MS/MS analysis; assay type: functional
[6] = test system: Leishmania major; assay: Effect on Ergosta-5,7-dienol level in Leishmania major LV39 promastigotes assessed as fold change at 17 uM incubated for 48 hrs by LC-MS/MS analysis; assay type: functional
[7] = test system: Leishmania major; assay: Effect on 4-Methylzymosterol level in Leishmania major LV39 promastigotes assessed as fold change at 17 uM incubated for 48 hrs by LC-MS/MS analysis; assay type: functional
[8] = test system: Leishmania major; assay: Effect on Ergostatetraenol level in Leishmania major LV39 promastigotes assessed as fold change at 17 uM incubated for 48 hrs by LC-MS/MS analysis; assay type: functional
[9] = test system: Leishmania major; assay: Effect on 4-CH2OH-LS sterol level in Leishmania major LV39 promastigotes assessed as fold change at 17 uM incubated for 48 hrs by LC-MS/MS analysis; assay type: functional
[10] = test system: Leishmania major; assay: Effect on Ergosterol level in Leishmania major LV39 promastigotes assessed as fold change at 17 uM incubated for 48 hrs by LC-MS/MS analysis; assay type: functional
[11] = test system: Leishmania major; assay: Effect on Episterol level in Leishmania major LV39 promastigotes assessed as fold change at 17 uM incubated for 48 hrs by LC-MS/MS analysis; assay type: functional
[12] = test system: Leishmania major; assay: Effect on 7-Dehydrodesmosterol level in Leishmania major LV39 promastigotes assessed as fold change at 17 uM incubated for 48 hrs by LC-MS/MS analysis; assay type: functional
[13] = test system: Leishmania major; assay: Effect on Zymosterol level in Leishmania major LV39 promastigotes assessed as fold change at 17 uM incubated for 48 hrs by LC-MS/MS analysis; assay type: functional
[14] = test system: Leishmania major; assay: Effect on 14-methylzymosterol level in Leishmania major LV39 promastigotes assessed as fold change at 17 uM incubated for 48 hrs by LC-MS/MS analysis; assay type: functional
[15] = test system: Leishmania major; assay: Effect on lanosterol level in Leishmania major LV39 promastigotes assessed as fold change at 17 uM incubated for 48 hrs by LC-MS/MS analysis; assay type: functional
[16] = test system: Leishmania donovani; assay: Antileishmanial activity against Leishmania donovani overexpressing CYP5122A1 at 1.2 to […]; assay type: functional, organism-based; settings: dose 1.2-3.7 µM
[17] = test system: Leishmania major; assay: Effect on Cholesterol level in Leishmania major LV39 promastigotes assessed as fold change at 25 uM incubated for 48 hrs by LC-MS/MS analysis; assay type: functional
[18] = test system: Leishmania major; assay: Effect on Zymosterol level in Leishmania major LV39 promastigotes assessed as fold change at 25 uM incubated for 48 hrs by LC-MS/MS analysis; assay type: functional
[19] = test system: Leishmania major; assay: Effect on Ergostatetraenol level in Leishmania major LV39 promastigotes assessed as fold change at 25 uM incubated for 48 hrs by LC-MS/MS analysis; assay type: functional
[20] = test system: Leishmania major; assay: Effect on 4,14-Dimethylzymosterol level in Leishmania major LV39 promastigotes assessed as fold change at 25 uM incubated for 48 hrs by LC-MS/MS analysis; assay type: functional
[21] = test system: Leishmania major; assay: Effect on 14-Methylfecosterol level in Leishmania major LV39 promastigotes assessed as fold change at 25 uM incubated for 48 hrs by LC-MS/MS analysis; assay type: functional
[22] = test system: Leishmania major; assay: Effect on 14-methylzymosterol level in Leishmania major LV39 promastigotes assessed as fold change at 25 uM incubated for 48 hrs by LC-MS/MS analysis; assay type: functional
[23] = test system: Leishmania major; assay: Effect on lanosterol level in Leishmania major LV39 promastigotes assessed as fold change at 25 uM incubated for 48 hrs by LC-MS/MS analysis; assay type: functional
[24] = test system: Leishmania major; assay: Effect on Ergosterol level in Leishmania major LV39 promastigotes assessed as fold change at 25 uM incubated for 48 hrs by LC-MS/MS analysis; assay type: functional
[25] = test system: Leishmania major; assay: Effect on Fecosterol level in Leishmania major LV39 promastigotes assessed as fold change at 25 uM incubated for 48 hrs by LC-MS/MS analysis; assay type: functional
[26] = test system: Leishmania major; assay: Effect on Episterol level in Leishmania major LV39 promastigotes assessed as fold change at 25 uM incubated for 48 hrs by LC-MS/MS analysis; assay type: functional
[27] = test system: Leishmania major; assay: Effect on 7-Dehydrodesmosterol level in Leishmania major LV39 promastigotes assessed as fold change at 25 uM incubated for 48 hrs by LC-MS/MS analysis; assay type: functional
[28] = test system: Leishmania major; assay: Effect on 4-CH2OH-LS sterol level in Leishmania major LV39 promastigotes assessed as fold change at 25 uM incubated for 48 hrs by LC-MS/MS analysis; assay type: functional
[29] = test system: Leishmania major; assay: Effect on Ergosta-5,7-dienol level in Leishmania major LV39 promastigotes assessed as fold change at 25 uM incubated for 48 hrs by LC-MS/MS analysis; assay type: functional
[30] = test system: Leishmania major; assay: Effect on 5-Dehydroepisterol level in Leishmania major LV39 promastigotes assessed as fold change at 25 uM incubated for 48 hrs by LC-MS/MS analysis; assay type: functional
[31] = test system: Leishmania major; assay: Effect on Cholesta-7,24-dienol level in Leishmania major LV39 promastigotes assessed as fold change at 25 uM incubated for 48 hrs by LC-MS/MS analysis; assay type: functional
[32] = test system: Leishmania major; assay: Effect on 4-Methylzymosterol level in Leishmania major LV39 promastigotes assessed as fold change at 25 uM incubated for 48 hrs by LC-MS/MS analysis; assay type: functional
[33] = test system: Leishmania donovani; assay: Antileishmanial activity against Leishmania donovani LV82 promastigotes assessed as inhibition of parasite proliferation; assay type: functional, organism-based
[34] = test system: Leishmania donovani; assay: Antileishmanial activity against Leishmania donovani promastigotes infected in mouse J774 cells assessed as inhibition of parasite proliferation; assay type: functional, organism-based
[35] = Inhibition of full length his-tagged recombinant Leishmania donovani CYP51-32c
[36] = test system: Leishmania donovani; assay: Antileishmanial activity against Leishmania donovani LV82 promastigotes infected in female mouse Peritoneal macrophage cells incubated for 72 hrs by DAPI staining based analysis; assay type: functional, organism-based
[37] = test system: Leishmania major; assay: Effect on Ergosterol level in Leishmania major LV39 promastigotes assessed as fold change at 2 uM incubated for 48 hrs by LC-MS/MS analysis; assay type: functional
[38] = test system: Leishmania major; assay: Effect on Cholesterol level in Leishmania major LV39 promastigotes assessed as fold change at 2 uM incubated for 48 hrs by LC-MS/MS analysis; assay type: functional
[39] = test system: Leishmania major; assay: Effect on 4,14-Dimethylzymosterol level in Leishmania major LV39 promastigotes assessed as fold change at 2 uM incubated for 48 hrs by LC-MS/MS analysis; assay type: functional
[40] = test system: Leishmania major; assay: Effect on 14-Methylfecosterol level in Leishmania major LV39 promastigotes assessed as fold change at 2 uM incubated for 48 hrs by LC-MS/MS analysis; assay type: functional
[41] = test system: Leishmania major; assay: Effect on 14-methylzymosterol level in Leishmania major LV39 promastigotes assessed as fold change at 2 uM incubated for 48 hrs by LC-MS/MS analysis; assay type: functional
[42] = test system: Leishmania major; assay: Effect on 5-Dehydroepisterol level in Leishmania major LV39 promastigotes assessed as fold change at 2 uM incubated for 48 hrs by LC-MS/MS analysis; assay type: functional
[43] = test system: Leishmania major; assay: Effect on lanosterol level in Leishmania major LV39 promastigotes assessed as fold change at 2 uM incubated for 48 hrs by LC-MS/MS analysis; assay type: functional
[44] = test system: Leishmania major; assay: Effect on Ergosta-5,7-dienol level in Leishmania major LV39 promastigotes assessed as fold change at 2 uM incubated for 48 hrs by LC-MS/MS analysis; assay type: functional
[45] = test system: Leishmania major; assay: Effect on 4-CH2OH-LS sterol level in Leishmania major LV39 promastigotes assessed as fold change at 2 uM incubated for 48 hrs by LC-MS/MS analysis; assay type: functional

Compound: O=C(Nc1ccc(OCc2cc(C(F)(F)F)cc(C(F)(F)F)c2)cc1)N1CCN(CCn2ccnc2)CC1
- fold change (FC) [1]: 3.3
- fold change (FC) [2]: 0.69
- fold change (FC) [3]: 3.2
- fold change (FC) [4]: 1.9
- fold change (FC) [5]: 1
- fold change (FC) [6]: 0.16
- fold change (FC) [7]: 3.2
- fold change (FC) [8]: 2.4
- fold change (FC) [9]: 1.6
- fold change (FC) [10]: 0.42
- fold change (FC) [11]: 3.2
- fold change (FC) [12]: 0.95
- fold change (FC) [13]: 3.4
- fold change (FC) [14]: 0.48
- fold change (FC) [15]: 31

Compound: O=C(Nc1ccc(OCc2cc(C(F)(F)F)cc(C(F)(F)F)c2)cc1)N1CCN(CCc2ccncc2)CC1
- Activity [16]: Active

Compound: OC(Cn1cncn1)(Cn1cncn1)c1ccc(F)cc1F [FLUCONAZOLE]
- fold change (FC) [17]: 0.53
- fold change (FC) [18]: 0.39
- fold change (FC) [19]: 0.37
- fold change (FC) [20]: 1.8
- fold change (FC) [21]: 229
- fold change (FC) [22]: 4.5
- fold change (FC) [23]: 0.47
- fold change (FC) [24]: 0.31
- fold change (FC) [25]: 0.6
- fold change (FC) [26]: 0.6
- fold change (FC) [27]: 0.044
- fold change (FC) [28]: 0.42
- fold change (FC) [29]: 0.17
- fold change (FC) [30]: 0.25
- fold change (FC) [31]: 0.38
- fold change (FC) [32]: 0.6

Compound: O=C(Nc1ccc(OCc2ccccc2)cc1)N1CCN(CCc2ccncc2)CC1
- EC50 [33]: > 100 µM

Compound: O=C(Nc1ccc(OCc2cc(C(F)(F)F)cc(C(F)(F)F)c2)cc1)N1CCN(CCn2cncn2)CC1
- EC50 [34]: > 50 µM
- EC50 [33]: > 50 µM

Compound: Cc1cccc(NC(=O)N2CCN(Cc3ccncc3)CC2)c1
- EC50 [33]: > 100 µM

Compound: O=C(Nc1ccc(OCc2cc(C(F)(F)F)cc(C(F)(F)F)c2)cc1)N1CCN(CCCc2ccccc2)CC1
- EC50 [33]: > 50 µM

Compound: O=C(Nc1cccc(F)c1)N1CCN(Cc2ccncc2)CC1
- EC50 [33]: > 100 µM

Compound: O=C(Nc1ccc(OCc2cc(C(F)(F)F)cc(C(F)(F)F)c2)cc1)N1CCN(CCc2ccccc2)CC1
- IC50 [35]: > 100 µM
- EC50 [33]: > 13 µM

Compound: O=C(Nc1cc(C(F)(F)F)cc(C(F)(F)F)c1)N1CCN(Cc2ccncc2)CC1
- EC50 [36]: > 50 µM

Compound: COc1ccc(NC(=O)N2CCN(Cc3ccncc3)CC2)cc1
- EC50 [33]: > 100 µM

Compound: O=C(Nc1ccc(Cl)cc1)N1CCN(Cc2ccncc2)CC1
- EC50 [33]: > 100 µM

Compound: Cc1ccccc1NC(=O)N1CCN(Cc2ccncc2)CC1
- EC50 [33]: > 100 µM

Compound: COc1cccc(NC(=O)N2CCN(Cc3ccncc3)CC2)c1
- EC50 [33]: > 100 µM

Compound: CC(C)Oc1cccc(NC(=O)N2CCN(Cc3ccncc3)CC2)c1
- EC50 [33]: > 50 µM

Compound: CC(C)(C)c1cccc(NC(=O)N2CCN(Cc3ccncc3)CC2)c1
- EC50 [36]: > 50 µM
- EC50 [34]: > 50 µM

Compound: CC[C@@H]([C@H](C)O)n1ncn(-c2ccc(N3CCN(c4ccc(OC[C@@H]5CO[C@@](Cn6cncn6)(c6ccc(F)cc6F)C5)cc4)CC3)cc2)c1=O [POSACONAZOLE]
- fold change (FC) [37]: 0.027
- fold change (FC) [38]: 1.3
- fold change (FC) [39]: 10
- fold change (FC) [40]: 321
- fold change (FC) [41]: 3.1
- fold change (FC) [42]: 0.02
- fold change (FC) [43]: 3.6
- fold change (FC) [44]: 0.022
- fold change (FC) [45]: 1.4

Compound: O=C(Nc1cccc(Cl)c1)N1CCN(Cc2ccncc2)CC1
- EC50 [33]: > 100 µM

Compound: O=C(Nc1ccccc1)N1CCN(Cc2ccncc2)CC1
- EC50 [33]: > 100 µM

Compound: COc1cc(NC(=O)N2CCN(Cc3ccncc3)CC2)cc(OC)c1
- EC50 [33]: > 100 µM

Compound: O=C(Nc1ccc(C(F)(F)F)cc1)N1CCN(Cc2ccncc2)CC1
- EC50 [33]: > 50 µM

Compound: Cc1ccc(NC(=O)N2CCN(Cc3ccncc3)CC2)cc1
- EC50 [33]: > 100 µM

Compound: Cc1cc(NC(=O)N2CCN(Cc3ccncc3)CC2)cc(C)c1C
- EC50 [33]: > 50 µM

Compound: Cc1cc(C)cc(NC(=O)N2CCN(Cc3ccncc3)CC2)c1
- EC50 [33]: > 50 µM

Compound: O=C(Nc1cc(F)cc(F)c1)N1CCN(Cc2ccncc2)CC1
- EC50 [33]: > 100 µM

Compound: O=C(Nc1ccc(F)cc1)N1CCN(Cc2ccncc2)CC1
- EC50 [33]: > 100 µM

Compound: O=C(Nc1ccccc1Cl)N1CCN(Cc2ccncc2)CC1
- EC50 [33]: > 100 µM
